{"source": "patent US12071469B2", "about": "“Peptide compounds for suppressing inflammation” (Duke University, priority 2011, dated 2024)", "key": {"[1]": {"tested_on": "mixed glial primary culture", "assay": "Suppression of TNF-α release in mixed glial primary culture after exposure to LPS", "assay_type": "cell-based, murine", "conditions": "FIGS. 11A and 11B", "method": "In vitro methods have been developed using cultured cells for evaluating the ability of a compound, such as a peptide, to suppress glial activation. Laskowitz et al., (2001) Exp. Neurol., 167:74-85. Glial cell cultures were grown and maintained under standard conditions. Cultured glial cells may include primary murine mixed glial cell cultures, murine BV-2 microglial cells, and human C3 microglial cells. Adherent glial cells were washed with OptiMEM® medium (available from Invitrogen Corp.) to remove serum and covered with fresh OptiMEM® medium containing peptide.\nLarger peptides or proteins may need to be tested at higher concentrations to observe measurable suppression of glial activation. If using primary murine cells and BV-2 cells, cells are stimulated with 100 ng/ml E. coli LPS (available from Sigma-Aldrich Co.), and supernatant is collected six hours after LPS stimulation and assayed for nitrite (using a colorimetric Griess reagent system, available from Promega Corp.) and/or TNF-α (using a solid-phase ELISA kit, available from Invitrogen Corp.). If using human C3 cells, cells are stimulated with 200 μg/ml polyinosinic acid 5′ (available from Sigma-Aldrich Co.), and supernatant is collected 5 days after stimulation and assayed for TNF-α using a solid-phase ELISA kit (available from Invitrogen Corp.).\nThe protective activity against brain injury-downregulating CNS inflammatory response was determined for ApoE mimetic peptides, VR-55 (SEQ ID NO: 4), VL-5-1 (SEQ ID NO: 5) and VL-5-3 (SEQ ID NO: 10)."}, "[2]": {"assay": "VSRRR quantitation in mouse plasma by LC/SIM/MS after intravenous dosing", "assay_type": "in vivo", "conditions": "IV single dose 0.8 mg/kg", "method": "The amount of the ApoE mimetic peptide VSRRR (SEQ ID NO:4) in blood plasma and CNS was determined as follows:\nVSRRR Quantitation in Mouse Plasma Using LC/Selected Ion Monitoring (SIM)/MS\n48 μL aliquots of mouse plasma were measured into the wells of a 2 mL 96-well plate. 6 μL of a stable isotope labeled (SIL) form of the VSRRR peptide (“VSRRR[10]”; SEQ ID NO:4) (5 picomoles/μL in 50 mM ammonium bicarbonate, pH 8, buffer) was added. 6 μL of a synthetic form of the VSRRR peptide (“VSRRR”; SEQ ID NO:4) in 50 mM Ammonium bicarbonate was added for standards and quality controls (QCs) and an equivalent volume of 50 mM ammonium bicarbonate was added to all wells containing mouse PK samples. 1140 μL of 50 mM ammonium formate, pH 10, was added for a final volume of 1200 μL. Salts and proteins were removed using OASIS® HLB Solid Phase Extraction (SPE) protocol as follows: • 1. 500 μL methanol (MeOH) through each well×1. • 2. 500 μL 25% acetonitrile (ACN)/1% trifluoroacetic acid (TFA)×1 (as pre-elution). • 3. 500 μL MeOH×1 • 4. 500 μL 50 mM ammonium formate×2 • 5. 1 mL of each sample mixture was pipetted directly onto an OASIS® HLB plate (hydrophilic-lipophilic-balanced reversed-phase sorbent; Waters Corp.) into a corresponding well and slowly vacuumed through • 6. 500 μL 50 mM ammonium formate×1 • 7. 500 μL 10% ACN/50 mM ammonium formate×2 • 8. 500 μL 25% ACN/50 mM ammonium formate×1 • 9. Removed plate collecting washes/flowthrough, and put in collection plate • 10. Eluted with 100 μL 25% ACN/1% TFA×3, eluting with vacuum slowly. The final eluate should be approximately 300 μL.\nThe SPE eluate was dried using a vacuum centrifuge. The sample was reconstituted in 50 μL of buffer containing 1% acetonitrile (ACN), 0.1% trifluoroacetic acid (TFA), and 0.02% heptafluorobutyric acid (HFBA). Two microliters of reconstituted sample was analyzed by nanoscale capillary LC coupled to a high resolution, accurate mass tandem mass spectrometer. Specifically, the electrospray ionization source with NanoLockSpray™ (Waters Corp.) and nanoAcquity UPLC® system (Waters Corp.) were used with a nanoscale LC column (1.7 μm BEH130 C18 150 μm ID×100 mm long; Waters Corp.), 10-min gradient of 3% to 19% ACN with 0.1% formic acid (mobile phase A=0.1% formic acid/0.001% HFBA) with a total LC run time of 16.5 minutes, flow rate=1.8 μL/min and 35° C. column temperature. A SYNAPT™ G1 HDMS™ high resolution mass spectrometer (Waters Corp.) was used. Full Scan MS data was obtained over the mass region of 50-4000 Da using an Enhanced Duty Cycle scan function at 360 Da.\nVSRRR and VSRRR[10] amounts were quantitated by measuring the area under the curve (AUC) of the Selected Ion Chromatograms of the doubly charged ions at high resolution (m/z 357.7 and 362.7). The final VSRRR quantitation amount was determined using the ratio of the AUCs (VSRRR/VSRRR[10]). The ratios from 5 animals were averaged per time point and calibration standards were used to generate a standard curve. Duplicate aliquots of QC samples were analyzed by LC/MS in triplicate to determine analytical reproducibility.\nThe lower level of quantitation (LLOQ) is indicated."}}, "note": "Entries after “also recorded” stand apart in the source; their conditions may differ.", "data": [{"substance": "Ac-VSRRR-NH2 [VR-55, Ac-VSRRR-NH2]", "values": [{"measurement": "release of inflammatory cytokine TNF-α", "setting": "[1]", "value": "inhibition of microglial TNF-α secretion; also recorded: suppress the release of inflammatory cytokine TNF-α"}, {"measurement": "Ratio Light/Heavy across 5 animals", "setting": "[2]; 1 min", "value": 0.079}, {"measurement": "amount of peptide in plasma", "setting": "[2]; 1 min", "value": 32.2, "unit": "fmol/µL"}, {"measurement": "Ratio Light/Heavy across 5 animals", "setting": "[2]; 3 min", "value": 0.134}, {"measurement": "amount of peptide in plasma", "setting": "[2]; 3 min", "value": 51.8, "unit": "fmol/µL"}, {"measurement": "Ratio Light/Heavy across 5 animals", "setting": "[2]; 5 min", "value": 0.077}, {"measurement": "amount of peptide in plasma", "setting": "[2]; 5 min", "value": 31.7, "unit": "fmol/µL"}, {"measurement": "Ratio Light/Heavy across 5 animals", "setting": "[2]; 10 min", "value": 0.058}, {"measurement": "amount of peptide in plasma", "setting": "[2]; 10 min", "value": 24.9, "unit": "fmol/µL"}, {"measurement": "Ratio Light/Heavy across 5 animals", "setting": "[2]; 15 min", "value": 0.044}, {"measurement": "amount of peptide in plasma", "setting": "[2]; 15 min", "value": 19.6, "unit": "fmol/µL"}, {"measurement": "Ratio Light/Heavy across 5 animals", "setting": "[2]; 30 min", "value": 0.016}, {"measurement": "amount of peptide in plasma", "setting": "[2]; 30 min", "value": 9.9, "unit": "fmol/µL"}, {"measurement": "Ratio Light/Heavy across 5 animals", "setting": "[2]; 60 min", "value": 0.012}, {"measurement": "amount of peptide in plasma", "setting": "[2]; 60 min", "value": 8.5, "unit": "fmol/µL"}]}]}
